Assay results: US5140025A, “Thienotricylene for the treatment of bronchial diseases” (BYK Gulden Lomberg Chemische Fabrik GmbH, priority 1987, dated 1992)

How the values were obtained:
[1] = system: acetylcholine-induced bronchospasm; experiment: Acetylcholine-induced bronchospasm in anaesthetised, spontaneously breathing guinea pigs, intravenous administration; format: in vivo, guinea pig (Pirbright White); settings: for Mean bronchospasmolytic activity, percentage increase of Vmaxe vs control spasm / Mean bronchospasmolytic activity, percentage increase of tidal volume (TV) vs control spasm: 0-60 min; for Mean bronchospasmolytic activity, percentage increase of Vmaxe vs control spasm / Mean bronchospasmolytic activity, percentage increase of tidal volume (TV) vs control spasm / Bronchospasmolytic activity, percentage increase of Vmaxe vs control spasm / Bronchospasmolytic activity, percentage increase of tidal volume (TV) vs control spasm: x±SEM, N=10; for Bronchospasmolytic activity, percentage increase of Vmaxe vs control spasm / Bronchospasmolytic activity, percentage increase of tidal volume (TV) vs control spasm: at 60 min
Excerpt: Effect of Intravenously Administered Telenzepine on Acetylchline-Induced Bronchospasms in Anaesthetised, Spontaneously Breathing Guinea Pigs
Method for simultaneously recording pharmacodynamic or toxic effects on interior sensitive receptors and the respiration of guinea pigs (U. Kilian, E. Muller, E. Ch. Dittmann and J. Hamacher, Arzneim.-Forsch. 28, 1699-1708, 1978).
Pirbright White, Interfauna (Tuttlingen), 350-450 g, male.
Ethylurethane 1.2 g/kg i.p. as 12.5% aqueous solution.
Pneumotachogram: Maximum flow velocities of the respiratory air during expiration (Vmaxe, "peak flow"), tidal volume (TV).
Acetylcholine as spasmogen, 0.2-0.3 μmol/kg i.v., dissolved in 0.9% NaCl.
-10 min control spasm, 0 min administration of substance, +2, +10, +20, +30, +60 min test spasms.
Determination of the effect of telenzepine on the parameters (mean and standard error of mean, n=10) and calculation of the bronchospasmolytic activity from this as percentage inhibition of the acetylcholine-induced decrease of Vmaxe and TV by means of time/effect curves. Computation of a dose/response curve of the mean bronchospasmolytic activity during the observation time (0-60 min) from the areas under the time/effect curves and reading of 1 h ED50 values. Determination of a dose/response curve of the bronchospasmolytic activity at time 60 min and reading ED50 values.

[2] = system: modified Shay rat (lesion formation and acid secretion); experiment: Antiulcerogenic and secretion-inhibiting action on the modified Shay rat; format: in vivo
Excerpt: The excellent gastric protective action and the gastric secretion-inhibiting action of the compound (+)-4,9-dihydro-3-methyl-4-[(4-methyl-1-piperazinyl)-acetyl]-10H-thieno[3,4-b][1,5]benzodiazepin-10-one (=compound 1 in Table 8 below) in comparison with the corresponding (-)-enantiomer (=compound 3) and with the racemate (=compound 2) can be detected in studies on the modified Shay rat. The effect of the stated compounds after intravenous (i.v.) administration on the formation of lesions and the acid secretion in the modified Shay rat is shown in Table 8 below.
Ulcers are provoked in rats (female, 180-200 g, 4 animals per cage on high grids) which have fasted for 24 hours, by pylorus ligature (under diethyl ether anaesthesia) and oral administration of 100 mg/10 ml/kg of acetylsalicylic acid. The substances to be tested are administered intravenously (1 ml/kg) directly after the pylorus ligature. The wound is closed by means of Michel clamps. 4 hours afterwards, the animals are sacrificed under anaesthesia with ether by Atlas dislocation, and resection of the stomach.
The stomach is opened along the greater curvature and clamped to a cork sheet, the amount of secreted gastric juice (volume) is determined first and its HCl content (titration with sodium hydroxide solution) being determined subsequently. The number and size (=diameter) of ulcers present are determined using a stereomicroscope, under 10×magnification. The product of severity (according to the following point scale) and number of ulcers serves as an individual lesion index.
The reduction in the means lesion index of each treated group compared with the control group (=100%) serves as a measure of the antiulcerogenic effect. The ED50 is the dose which reduces the mean lesion index or the HCl secretion by 50% compared with the control.

[3] = molecular target: M1 receptor (ganglionic); experiment: Receptor affinity, electrically stimulated rabbit vas deferens in organ bath; settings: vas deferens of the rabbit, agonist McN-A-343, Schild slope normalised to 1.00; listed as Compound 3
Description: Isometric contractions (HSE force transducer, K-30; tilt and zones, BD-9 chart recorder) of isolated seminal duct sections of rabbits (male, white New Zealand rabbits, 2.5-3.5 kg) were recorded in an organ bath (10 ml, 31° C., gassing with carbogen, initial tension of the organs 0.75 g) under electrical stimultion (HSE stimulator; hook-shaped Pt electrode 1 cm below the water surface of the bath; 30 V, 0.5 ms, 0.05 Hz). After an equilibration time of 30 minutes, cumulative dose/response curves of McN-A-343 (10^-7 -2×10^-6 M) were recorded simultaneously on 8 organ sections in each case (control curves), using the technique described by van Rossum (1963). After 3 control curves, a fixed concentration of the agonist (for example 5×10^-7, 10^-6, 3×10^-6, 10^-5 or 3×10^-5 M) per organ section was applied and, after stabilisation of the effect, increasing concentrations of the agonist to be tested were added. The nutrient solution used had the following composition (mM): NaCl 118, KCl 4.7, CaCl2 ·2H2 O 2.5, MgSO4 ·7H2 O 0.6, KH2 PO 4 1.2, NaHCO3 25.0 and glucose 11.1. In order to block α2 -adrenoreceptors, the nutrient solution additionally contained 10^-6 M yohimbine.

[4] = molecular target: T1, M2 receptor (cardiac) (Rattus norvegicus, UniProt P10980); experiment: Receptor affinity, electrically stimulated left atrium of the rat; settings: agonist carbachol, Schild slope normalised to 1.00, read-out: pA2 ± SEM, M2 receptor (cardiac) (converted)
T1 construct: isolated, left atria of rats (male 250-350 g); from tissue; host or cells: rat left atrium (isolated, male rats 250-350 g)
T1 sequence (P10980 1-466): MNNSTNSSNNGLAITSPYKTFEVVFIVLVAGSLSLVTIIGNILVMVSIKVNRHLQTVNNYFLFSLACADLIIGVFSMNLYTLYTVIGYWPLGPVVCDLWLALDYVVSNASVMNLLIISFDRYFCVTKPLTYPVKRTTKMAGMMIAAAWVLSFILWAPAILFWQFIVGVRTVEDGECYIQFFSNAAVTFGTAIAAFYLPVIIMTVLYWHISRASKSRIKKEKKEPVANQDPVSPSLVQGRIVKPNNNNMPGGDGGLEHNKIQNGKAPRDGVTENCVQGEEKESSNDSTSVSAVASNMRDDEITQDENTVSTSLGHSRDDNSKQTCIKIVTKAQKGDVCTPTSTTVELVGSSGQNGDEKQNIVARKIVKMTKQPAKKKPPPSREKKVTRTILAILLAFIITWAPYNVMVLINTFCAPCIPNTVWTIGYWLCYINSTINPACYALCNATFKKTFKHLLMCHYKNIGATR
Excerpt: The affinity of (±)-4,9-dihydro-3-methyl-4-[(4-methyl-1-piperazinyl)-acetyl]-10H-thieno[3,4-b][1,5]benzodiazepin-10-one (telenzepine, compound 2 in Table 7) and its conformers [(+)-enantiomer=compound 1, (-)-enantiomer=compound 3] to muscarinic M1 (ganglionic type) and M2 (cardiac type) receptors was investigated by the following methods:
Electrically Stimulated Left Atrium of the Rat (Eltze et al., 1985, Europ. J. Pharmacol. 112, 211-224).
Isometric contractions (HSE force transducer, K-30; Watanabe Linear Corder Mark 5) of isolated, left atria of rats (male 250-350 g) were recorded in an organ bath (10 ml, Tyrode nutrient solution, 31° C., gassing with carbogen, initial tension of the organs 0.25 g) under electrical stimulation (HSE stimulator; hook-shaped Pt electrodes at the base of the bath and immersed, annular Pt electrodes 1 cm below the water surface of the bath; 7 V, 3 ms, 2 Hz). After an equilibration time of 30 minutes, cumulative dose/response curves of carbachol (10^-8 -10^-6 M, in the presence of the antagonist also up to 10^-5 or 10^-4 M) were recorded simultaneously on 4 organs in each case by the technique described by van Rossum (1963). The substance to be tested was added to the organ baths 20 minutes before application of the carbachol. The pauses between the individual dose/response curves were 30-45 minutes.
The Tyrode nutrient solution used had the following composition (mM): NaCl 130, KCl 2.0, CaCl2 ·2H2 O 1.8, MgCl2 ·6H2 O 0.98, NaHCO3 12.0, NaH2 PO4 0.42 and glucose monohydrate 5.6. pA2 values (-log of the molar dissociation constants of the competitive antagonist-receptor complex) were determined by linear regression using the Schild plot: pA2 =-log [B/(x-1)], (Arunlakshana and Schild, 1959).
Table 7 below gives pA2 values of the substances, for which the slope of the regression lines for theoretically competitive antagonism have been normalised to 1.00 (Tallarida et al., 1979).

[5] = at time 60 min after administration, 60 min
[6] = modified Shay rat, i.v., interpolated dose, 4 h, N=24, listed as 3, 240 min

Structure (SMILES): Cc1scc2c1N(C(=O)CN1CCN(C)CC1)c1ccccc1NC2=O [(-)-telenzepine, (-)-4,9-dihydro-3-methyl-4-[(4-methyl-1-piperazinyl)-acetyl]-10H-thieno-[3,4-b][1,5]benzodiazepin-10-one]
- Mean bronchospasmolytic activity, percentage increase of Vmaxe vs control spasm ([1]; 0.1 μmol/kg i.v.): 2 ± 1%
- Mean bronchospasmolytic activity, percentage increase of tidal volume (TV) vs control spasm ([1]; 0.1 μmol/kg i.v.): 0 ± 2%
- Mean bronchospasmolytic activity, percentage increase of Vmaxe vs control spasm ([1]; 1 μmol/kg i.v.): 17 ± 3%
- Mean bronchospasmolytic activity, percentage increase of tidal volume (TV) vs control spasm ([1]; 1 μmol/kg i.v.): 20 ± 5%
- Mean bronchospasmolytic activity, percentage increase of Vmaxe vs control spasm ([1]; 5 μmol/kg i.v.): 65 ± 4%
- Mean bronchospasmolytic activity, percentage increase of tidal volume (TV) vs control spasm ([1]; 5 μmol/kg i.v.): 74 ± 4%
- Mean bronchospasmolytic activity, percentage increase of Vmaxe vs control spasm ([1]; 10 μmol/kg i.v.): 79 ± 2%
- Mean bronchospasmolytic activity, percentage increase of tidal volume (TV) vs control spasm ([1]; 10 μmol/kg i.v.): 87 ± 2%
- Mean bronchospasmolytic activity, percentage increase of Vmaxe vs control spasm ([1]; 30 μmol/kg i.v.): 89 ± 3%
- Mean bronchospasmolytic activity, percentage increase of tidal volume (TV) vs control spasm ([1]; 30 μmol/kg i.v.): 98 ± 3%
- Bronchospasmolytic activity, percentage increase of Vmaxe vs control spasm ([1]; 0.1 μmol/kg i.v.): 1 ± 1%
- Bronchospasmolytic activity, percentage increase of tidal volume (TV) vs control spasm ([1]; 0.1 μmol/kg i.v.): -3 ± 3%
- Bronchospasmolytic activity, percentage increase of Vmaxe vs control spasm ([1]; 1 μmol/kg i.v.): 18 ± 3%
- Bronchospasmolytic activity, percentage increase of tidal volume (TV) vs control spasm ([1]; 1 μmol/kg i.v.): 22 ± 5%
- Bronchospasmolytic activity, percentage increase of Vmaxe vs control spasm ([1]; 5 μmol/kg i.v.): 77 ± 5%
- Bronchospasmolytic activity, percentage increase of tidal volume (TV) vs control spasm ([1]; 5 μmol/kg i.v.): 88 ± 6%
- Bronchospasmolytic activity, percentage increase of Vmaxe vs control spasm ([1]; 10 μmol/kg i.v.): 77 ± 3%
- Bronchospasmolytic activity, percentage increase of tidal volume (TV) vs control spasm ([1]; 10 μmol/kg i.v.): 89 ± 3%
- Bronchospasmolytic activity, percentage increase of Vmaxe vs control spasm ([1]; 30 μmol/kg i.v.): 88 ± 4%
- Bronchospasmolytic activity, percentage increase of tidal volume (TV) vs control spasm ([1]; 30 μmol/kg i.v.): 94 ± 3%
- ED50 of bronchospasmolytic activity, TV [1, 5]: 2.0 μmol/kg i.v.
- ED50 of bronchospasmolytic activity, Vmaxe [1, 5]: 3.2 μmol/kg i.v.
- onset of efficacy ([1]; doses between 0.1 and 1 μmol/kg i.v.): significantly delayed
- ED50 of mean bronchospasmolytic activity, TV ([1]; mean activity 0-60 min, 60 min): 2.5 μmol/kg i.v.
- ED50 of mean bronchospasmolytic activity, Vmaxe ([1]; mean activity 0-60 min, 60 min): 3.1 μmol/kg i.v.
- Inhibition (of acid secretion) following 3 mg ([2]; 3 mg (i.v.), footnote to the ED50 of HCl secretion): 46%
- Gastric protective action, reduction of lesion index, about ED50 [2, 6]: ~0.65 mg/kg i.v.
- Inhibition of acid secretion, reduction of HCl secretion, about ED50 [2, 6]: ~3.0 mg/kg i.v.
- pA2 ± SEM, M1 receptor (ganglionic) [3]: 6.98 ± 0.14
- Kb [4]: 759 nM
